Test results taken from US7053047B2, “Cyclic pentapeptides and their preparation” (Purzer Pharmaceutical Co., Ltd., priority 2002, dated 2006).
Marks after values point to notes of the source that are not given here.

Experiments:
thrombus = assay: Thrombolytic effect in thrombolysis rat model (thrombus on bolt in arteriovenous polyethylene tube); type: in vivo, Wistar rat; details: for m, thrombus mass reduction: injected in 6 min, bolt weighed after 1 h, n = 8; for thrombolytic effect / potency (comparison in words): thrombolysis rat model, Tables 1 and 2
Procedure: The thrombolytic effect was evaluated by thrombolysis rat model.
0.1 ml Wistar rat blood was poured into a glass tube (length, 15 mm; external diameter, 5.0 mm; internal diameter, 2.5 mm) which was fixed vertically and the bottom was sealed with a rubber stopper. A stainless steel bolt was inserted quickly, the bolt diameter was 0.2 mm and the length was 12 mm. 15 min later, the bolt containing thrombus was taken out from the glass tube and weighed exactly.
Male Wistar rat weighing 220 g–280 g were anesthetized with pentobarbital sodium (80 mg/kg, i.p). The right arteria carotis communis and the left vena jugulars externa were separated. The bolt containing thrombus was put in the polyethylene tube and one end was inserted into the left vena jugulars externa. 50 IU/kg of heparin sodium was injected as anticoagulant, and the other tube end was inserted into the right arteria carotis communis. At this time the blood flowed from the right arteria carotis to the left vena jugulars externa via the polyethylene tube. Then normal saline solution, UK, GP6A (SEQ ID NO: 26), P6A (SEQ ID NO: 25) and KP6A (SEQ ID NO: 27) were injected in 6 min. The bolt was taken out and weighed after 1 h. The data are listed in Table 1 and Table 2, statistical data analysis was carried out by using student's t test, p<0.05 was considered significant.

[1] = tested on: coronary artery and femoral artery blood flow; details: dogs; cited from earlier work
[2] = tested on: coronary artery thrombosis; assay: Thrombolysis with tissue plasminogene activator in dogs with coronary artery thrombosis; type: in vivo; details: injected i.v. together with tissue plasminogene activator
Description: Peptide 6A is a degradation of fibrinogen β chain analogue which has been known to increase coronary artery and femoral artery blood flow. In 1978(1), peptide 6A was first isolated and purified from the β chain of human fibrinogen by Belew et al.(2). The composition of peptide 6A was confirmed as Ala-Arg-Pro-Ala-Lys (SEQ ID NO: 25). […] In 1997, the inventors prepared peptide 6A and its analogues by solution method and observed that these peptides have good potency for relaxing vascula, lowering blood pressure and anti-thrombosis. The synthetic techniques and functions of these compounds have been described in CN Patent No. 1146458.

Row | Substance | m, thrombus mass reduction (thrombus; dosage 5 μmol/kg) | m, thrombus mass reduction (thrombus; dosage 10 μmol/kg) | m, thrombus mass reduction (thrombus; dosage 20 μmol/kg) | thrombolytic effect / potency (comparison in words) (thrombus) | thrombolytic effect compared with UK (thrombus; high concentration (>10 μmol) versus UK (2000 IU/Kg)) | coronary artery and femoral artery blood flow [1] | parameters of thrombolysis [2]
1 | Cyclo(Lys-Arg-Pro-Ala-Lys) (KRPAK; cyclic; Cyclo KP6A) [CycloKP6A] | 6.13 ± 2.31^a mg |  |  |  |  |  | 
2 | H-Gly-Arg-Pro-Ala-LysOH (GRPAK; GP6A) | 9.31 ± 3.94^a mg | 13.17 ± 4.13^a mg | 16.81 ± 544^a,b mg | much more thrombolytic potency than the others |  |  | 
3 | Cyclo(Gly-Arg-Pro-Ala-Lys) (GRPAK; cyclic; Cyclo GP6A) [CycloGP6A] | 8.35 ± 2.76^a mg | 17.31 ± 4.29^a mg | 18.38 ± 2.08^a,b,c mg | much more thrombolytic potency than the others | even better than UK |  | 
4 | H-Lys-Arg-Pro-Ala-LysOH (KRPAK; KP6A) | 0.28 ± 2.13 mg |  |  |  |  |  | 
5 | H-Ala-Arg-Pro-Ala-LysOH (H-ARPAK-OH) [Compound P6A] | 6.07 ± 2.14^a mg |  |  |  |  | increases coronary artery and femoral artery blood flow | no additional benefit on the parameters of thrombolysis
6 | Cyclo(Ala-Arg-Pro-Ala-Lys) (ARPAK; cyclic; Cyclo P6A) [CycloP6A] | 10.62 ± 3.15^a mg |  |  |  |  |  | 
